Legend:
[1] = system: ganglionic-type nicotinic acetylcholine receptors; test: Determination of interaction with ganglion receptors; type: cell-based; conditions: at a concentration of 100 uM; percentage of maximal activation induced by (S)-(-)-nicotine
Method: Determination of Interaction with Ganglion Receptors
(§1) The determination of the interaction of the compounds with ganglionic receptors was carried out in accordance with the techniques described in U.S. Pat. No. 5,597,919 to Dull et al. The maximal activation for individual compounds (Emax) was determined as a percentage of the maximal activation induced by (S)-(−)-nicotine. Reported Emax values represent the amount released relative to (S)-(−)-nicotine on a percentage basis.

CNS nicotinic receptors = test: Determination of binding to relevant receptor sites; conditions: inhibition constant calculated from IC50 by the method of Cheng et al.
Method: Determination of Binding to Relevant Receptor Sites
Binding of the compounds to relevant receptor sites was determined in accordance with the techniques described in U.S. Pat. No. 5,597,919 to Dull et al. Inhibition constants (Ki values), reported in nM, were calculated from the IC50 values using the method of Cheng et al., Biochem, Pharmacol. 22:3099 (1973).

[2] = biological target: muscle-type nicotinic acetylcholine receptors (Homo sapiens, UniProt P02708+P07510+P11230+Q07001); test: Determination of interaction with muscle receptors; type: cell-based; conditions: at a concentration of 100 uM; percentage of maximal activation induced by (S)-(-)-nicotine
muscle-type nicotinic acetylcholine receptors, sequence (P02708 whole entry): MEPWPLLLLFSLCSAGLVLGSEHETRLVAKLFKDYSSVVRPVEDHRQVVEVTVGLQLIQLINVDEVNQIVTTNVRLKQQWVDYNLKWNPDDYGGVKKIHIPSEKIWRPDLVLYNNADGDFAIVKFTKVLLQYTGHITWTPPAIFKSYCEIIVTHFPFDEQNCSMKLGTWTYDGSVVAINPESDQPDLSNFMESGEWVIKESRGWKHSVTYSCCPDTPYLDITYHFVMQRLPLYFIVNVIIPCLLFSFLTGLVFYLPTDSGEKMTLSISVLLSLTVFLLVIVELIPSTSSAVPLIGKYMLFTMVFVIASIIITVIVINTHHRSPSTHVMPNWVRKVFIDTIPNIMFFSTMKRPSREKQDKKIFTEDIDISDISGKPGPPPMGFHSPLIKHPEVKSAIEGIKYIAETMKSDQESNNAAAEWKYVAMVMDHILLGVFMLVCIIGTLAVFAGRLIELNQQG
muscle-type nicotinic acetylcholine receptors, sequence (P11230 24-501): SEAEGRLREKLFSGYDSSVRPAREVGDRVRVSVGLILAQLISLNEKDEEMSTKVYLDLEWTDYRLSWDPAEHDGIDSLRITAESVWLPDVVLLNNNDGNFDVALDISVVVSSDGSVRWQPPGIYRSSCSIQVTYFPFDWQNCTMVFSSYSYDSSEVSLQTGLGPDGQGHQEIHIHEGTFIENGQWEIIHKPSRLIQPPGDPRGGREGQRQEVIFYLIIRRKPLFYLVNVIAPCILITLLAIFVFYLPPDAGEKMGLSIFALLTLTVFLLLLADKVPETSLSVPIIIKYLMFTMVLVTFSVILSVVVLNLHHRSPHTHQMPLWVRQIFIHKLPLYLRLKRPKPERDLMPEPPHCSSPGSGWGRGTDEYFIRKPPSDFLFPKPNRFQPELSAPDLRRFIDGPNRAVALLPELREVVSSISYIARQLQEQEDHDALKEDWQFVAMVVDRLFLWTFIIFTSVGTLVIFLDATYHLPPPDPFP
muscle-type nicotinic acetylcholine receptors, sequence (P07510 23-517): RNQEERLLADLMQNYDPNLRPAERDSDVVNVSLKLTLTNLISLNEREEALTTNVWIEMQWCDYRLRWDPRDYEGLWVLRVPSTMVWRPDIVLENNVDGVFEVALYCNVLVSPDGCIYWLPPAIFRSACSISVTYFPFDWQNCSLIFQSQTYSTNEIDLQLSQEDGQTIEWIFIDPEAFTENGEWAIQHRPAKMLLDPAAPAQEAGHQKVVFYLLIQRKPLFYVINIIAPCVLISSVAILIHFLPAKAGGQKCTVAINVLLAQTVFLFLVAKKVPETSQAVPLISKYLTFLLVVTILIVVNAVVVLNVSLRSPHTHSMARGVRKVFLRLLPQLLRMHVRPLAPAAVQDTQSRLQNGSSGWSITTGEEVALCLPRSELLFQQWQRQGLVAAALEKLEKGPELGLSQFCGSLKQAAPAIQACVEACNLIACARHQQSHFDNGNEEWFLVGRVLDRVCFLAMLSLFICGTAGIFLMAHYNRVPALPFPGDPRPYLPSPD
muscle-type nicotinic acetylcholine receptors, sequence (Q07001 22-517): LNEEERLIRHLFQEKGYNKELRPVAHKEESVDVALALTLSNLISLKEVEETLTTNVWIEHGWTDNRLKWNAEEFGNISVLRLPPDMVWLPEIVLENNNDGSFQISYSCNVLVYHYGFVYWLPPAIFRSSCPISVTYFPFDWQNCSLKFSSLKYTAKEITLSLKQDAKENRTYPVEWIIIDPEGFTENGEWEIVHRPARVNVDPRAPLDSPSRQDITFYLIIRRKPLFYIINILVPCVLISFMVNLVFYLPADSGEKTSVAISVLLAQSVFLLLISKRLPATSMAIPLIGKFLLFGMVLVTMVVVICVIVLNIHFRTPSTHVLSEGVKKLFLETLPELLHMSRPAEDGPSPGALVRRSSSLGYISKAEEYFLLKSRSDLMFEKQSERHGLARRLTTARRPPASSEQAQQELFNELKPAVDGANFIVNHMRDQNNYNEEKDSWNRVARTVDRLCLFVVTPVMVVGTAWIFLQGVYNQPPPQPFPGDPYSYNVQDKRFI
Method: Determination of Interaction with Muscle Receptors
as §1, with “muscle” for “ganglionic”

Molecule	Emax at ganglionic-type receptors [1] [%]	Ki (CNS nicotinic receptors) [nM]	Emax at muscle-type receptors [2] [%]
Brc1cncc(N2C[C@@H]3C[C@H]2CN3)c1 [Sample No. 1, (1S,4S)-(5-bromo-3-pyridyl)-2,5-diazabicyclo[2.2.1]heptane]	5	56	0
(1S,4S)-(5-(4-methoxyphenoxy)-3-pyridyl)-2,5-diazabicyclo[2.2.1]heptane hemigalactarate [Sample No. 2]	11	–	12
(1S,4S)-(5-pyrimidinyl)-2,5-diazabicyclo[2.2.1]heptane hemigalactarate [Sample No. 3]	11	–	100
(1S,4S)-(6-chloro-3-pyridazinyl)-2,5-diazabicyclo[2.2.1]heptane hemigalactarate [Sample No. 4]	28	–	0
